According to ChEMBL document CHEMBL3507680, “University of Dundee, Gates Library screen for HepG2 cell viability”:

Assay: Human HepG2 cell viability assay in 384 well format
Assay type: toxicity, cell-based
Set-up: dose 125 nL, time 70.5 hour; concentration not given beside the values
Details: HepG2 cells, read-out: Inhibition

Row | SMILES | cytotoxicity at 70.5 h [%]
1 | CCOc1ccc(Cl)c(C(=O)N2CCCC(N3CCCC3)C2)n1 (configuration not stated) | -2.98
2 | CCOCc1ncn2c1CN(C(=O)Nc1ccccc1)CC2 | -15.7
3 | O=C(c1ccc[nH]1)N1CCCn2cnc(COCC3CC3)c2C1 | -9.86
4 | CN(C)c1nc(CNC(=O)NC2COc3ccccc32)cs1 (configuration not stated) | 2.4
5 | CSCCCN1C[C@H](NC(=O)c2cc(C3CC3)on2)[C@@H](C2CC2)C1 | -7.58
6 | Cc1cc(-c2ccc(=O)n(C3CCN(C(=O)C4CCC4)CC3)n2)c(C)o1 | 1.9
7 | CCn1ccnc1CN(C)Cc1nc(Cc2ccccc2Cl)no1 | 0.631
8 | CCc1ncc(C(=O)N2CCOCC2CC(=O)c2ccccc2)s1 (configuration not stated) | -5.53
9 | CCc1nccn1CCC(=O)N1CCCC1c1ccc(F)cc1 (configuration not stated) | -1.42
10 | NC(=O)CC1CCN(C(=O)NCc2cccc(-n3cccn3)c2)CC1 | -1.91
11 | O=S1(=O)CCC(n2cc(C3=CCN(CCc4ccccc4)CC3)cn2)C1 (configuration not stated) | -2.15
12 | CNC(=O)CSc1nc2c(cnn2Cc2ccc(F)cc2)c(=O)[nH]1 | 13.5
13 | COc1cc(CNCc2ccc(-n3nc(C)cc3C)nc2)cc(OC)c1 | -5.72
14 | O=C(NCCc1nncn1C1CC1)c1cc2ccccn2c1 | -10.9
15 | Cc1nn(C)c(Cl)c1C1CCCN1CC(=O)N1CCOCC1 (configuration not stated) | 1.93
16 | C/C(=C\c1ccco1)CN(C)C(C)Cc1ccccn1 (configuration not stated) | 16
17 | CCN(CC1CCOC1)C(=O)NCc1ccc(-n2cncn2)nc1 (configuration not stated) | -1.6
18 | O=C(CCn1cccn1)N1CCC(C2CCN(c3ncccn3)CC2)C1 (configuration not stated) | -6.6
19 | COc1cccc(-c2noc(-c3ccc(NCCCO)nc3)n2)c1OC | 2.28
20 | c1cncc(-c2nnc(C3(c4ccc5c(c4)OCO5)CCOCC3)o2)c1 | -15.4
21 | C=C(C)COc1ccccc1CNC(CC)c1ccnn1C (configuration not stated) | -5.65
22 | Cc1cccc(-n2nnnc2C2(NCc3ccco3)CCCCC2)c1 | -3.38
23 | CCn1c(SCC(=O)N2CCCC2)nc2cc(C)[nH]c2c1=O | 36.5

Row | SMILES | cytotoxicity at 70.5 h [%]
24 | O=C(C1CC1)N1C[C@H]2CCCN(S(=O)(=O)c3cccc(F)c3)[C@H]2C1 | 3.8
25 | CCSc1cncc(N2CCC(C(=O)NC(C)C(C)C)CC2)n1 (configuration not stated) | -3.06
26 | COc1ccccc1C(=O)N1CCCC1Cn1cc(C)cn1 (configuration not stated) | -14.4
27 | O=C(CC1CC1)N1CCC2(CC1)CN(c1ncc(F)cn1)CCO2 | -9.05
28 | O=C1C[C@H]2[C@H](CCN2C(=O)c2ccno2)N1CC1CC1 | -4.81
29 | CC(C)C(O)CNC(=O)Nc1cnn(C(C)C)c1 (configuration not stated) | -8.43
30 | CCN1CCC(NN2CCN(C)CC2)CC1 | -4.47
31 | CC(CCN(C)C)NC(=O)N1CCSC(C)(C)C1 (configuration not stated) | -1.34
32 | OC1(CNc2cc(C(F)(F)F)nc3ccccc23)CCOCC1 | -4.81
33 | O=C([C@H]1C[C@@H]2[C@@H](C1)OCCN2CC1CC1)N1CCCC1 | -1.83
34 | CN(C)CC(=O)N1CCC2(CC(=O)N(c3cccc(C#N)c3)C2)C1 (configuration not stated) | 4.59
35 | OC(COCc1ccccc1)CSc1nnc(C2CC2)n1C1CC1 (configuration not stated) | 0.33
36 | O=C(C[S+]([O-])Cc1ccc(F)cc1Cl)NC1CCCC1 (configuration not stated) | -6.82
37 | Cn1cc(C2CC(=O)NC23CCN(Cc2ccncc2)CC3)cn1 (configuration not stated) | 13.9
38 | Cc1ocnc1C(=O)N1CCN(CCOc2ccccc2)CC1 | -10.4
39 | COc1cccc2[nH]cc(CCNC(=O)N3CCOCC3C3CC3)c12 (configuration not stated) | 23.2
40 | O=C1CC2(CCN(Cc3ccco3)C2)CN1c1ccc2c(c1)OCO2 (configuration not stated) | 11.6
41 | CC(C)c1nnc2n1CC(CNc1cnc3ccccc3n1)CC2 (configuration not stated) | -9.13
42 | N#CC1(C(=O)N2CCN(Cc3cscn3)CC2)CCCC1 | 14.2
43 | Cc1ccc(C(=O)N2CCC3(CC2)CC(c2cnn(C)c2)CO3)cn1 (configuration not stated) | -10.6
44 | CN1CC(NC(=O)Nc2cnn(-c3ccccc3Cl)c2)CCC1=O (configuration not stated) | -3.58
45 | CC(C)(C)c1ncc(C(=O)N2CCC(N3CCSCC3)CC2)c(O)n1 | -7.4
46 | COc1ccc2c(c1)OCC(CNC1CCc3ncnn3C1)=C2 (configuration not stated) | -0.263

Row | SMILES | cytotoxicity at 70.5 h [%]
47 | COCCC(=O)N1CCC2(CCN(Cc3cccc(F)c3)CC2)CC1 | -5.26
48 | Cc1ccc(OCC(C)NC(=O)CN(C)c2ccc(C#N)cn2)cc1 (configuration not stated) | -3.51
49 | CCC(=O)NCc1ccccc1Cn1ccnc1 | -2.6
50 | Cc1ccc(S(=O)(=O)n2ccn(C(=O)COc3ccccc3)c2=O)cc1 | -9.68
51 | Cc1cc(C)cc(NC(=O)CC2CN(Cc3ccccc3)CCO2)c1 (configuration not stated) | -4.17
52 | Cc1noc(-c2ccc(N3CCCC(C(=O)N4CCSCC4)C3)nc2)n1 (configuration not stated) | 3.88
53 | CC(NC(=O)N1CCC(c2ccccc2)CC1)c1nncn1C (configuration not stated) | -3.28
54 | Cc1nn(C)cc1-c1ccnc(N2CCSCC2)n1 | -1.53
55 | Cc1cc(NC(C)Cc2cccs2)n2nccc2n1 (configuration not stated) | -14.7
56 | Cc1nc(NC(=O)c2c(-n3cnnn3)sc3c2CCCC3)sc1C | -10.4
57 | CCc1noc(C(C)N2CCC(NS(=O)(=O)c3ccccc3)CC2)n1 (configuration not stated) | 19.7
58 | O=C(NCc1cc[nH]n1)NCC(O)COc1cccc(F)c1 (configuration not stated) | 22.7
59 | COC(=O)c1cc2c(OC)c(C)c(OC)cc2[nH]1 | -9.36
60 | Cc1nc2ccccc2nc1CN1CCc2c(nc(C3CC3)n2C)C1 | -0.539
61 | Cc1cc(C)n(C2CCCN(C(=O)Cc3ccc(C#N)cc3)C2)n1 (configuration not stated) | -14.4
62 | CC(C)(CNC(=O)C1CCCN(C(N)=O)C1)c1cccc(Cl)c1 (configuration not stated) | 9.61
63 | COCc1c(C(=O)N2CCCC(C(=O)c3nccn3C)C2)noc1C (configuration not stated) | -1.47
64 | CCS(=O)(=O)CC(=O)N1CCCC(c2noc(C(C)C)n2)C1 (configuration not stated) | 8.9
65 | CN(Cc1ccc(OCC(=O)N2CCOCC2)cc1)S(C)(=O)=O | 2.5
66 | CC(C)CN1Cc2nc(N)ncc2C1=O | -10.7
67 | N[C@@H]1CC[C@@H](NC(=O)c2ccccc2OC(F)(F)C(F)F)C1 | 16
68 | O=C(NCc1ccccn1)[C@@]12CCO[C@@H]1CCN(c1ncccn1)C2 | -4.87
69 | CC(C)c1nc(C2CCCN2c2cnc3cc(F)c(F)cc3n2)no1 (configuration not stated) | -5.58

Row | SMILES | cytotoxicity at 70.5 h [%]
70 | O=C(NC1CCCN(CCCc2ccccc2)C1)C1=CCCCC1 (configuration not stated) | -0.678
71 | CN(Cc1ccco1)[C@@H]1CN(Cc2ccncc2)C[C@@H]2CCCO[C@@H]21 | -13.9
72 | CCc1ccc(CNC(=O)NC2CCCc3c2cnn3CCO)s1 (configuration not stated) | -2.75
73 | Cc1noc(C)c1CN1CC[C@H]2O[C@@H](C(=O)N3CCCC3)CC[C@H]21 | 6.38
74 | Cc1csc(CN(C)c2cc(C)nc3c(C)c(C)nn23)n1 | -7.34
75 | Cc1occc1C(=O)N1CCO[C@H]2[C@@H](Oc3ccccn3)CC[C@@H]21 | 4.46
76 | Cc1cccnc1CN(C)CC1(O)CCCN(CC2CCCCC2)C1=O (configuration not stated) | 18.2
77 | CN(C)C(=O)[C@@H]1CCO[C@@H]2CCN(Cc3ccccc3)C[C@@H]21 | -3.08
78 | CCCN1CCCn2nc(CNC(=O)CN(C)C3CCCC3)cc2C1 | -8
79 | CCc1cnc(C)nc1NC(C)C(=O)Nc1cc(F)ccc1C (configuration not stated) | 22.4
80 | COc1cc2c(nn1)CCN(Cc1nc(Cc3ccccc3)no1)C2 | 2.14
81 | CN1C[C@@H](C(=O)NC(C)(C)C)[C@@]2(CCc3ccccc3C(=O)N2)C1 | 0.823
82 | CC(C)c1cc(C2CCN(C(=O)Cn3cnc4ccccc43)CC2)[nH]n1 | 4.36
83 | Cc1nccn1CCCN1CCC2(CCC(=O)N(CC3CC3)C2)CC1 | -7.09
84 | CS(=O)(=O)c1snnc1C1CCCN(Cc2ccncc2)C1 (configuration not stated) | -11.9
85 | CC(C(=O)N1CCN(c2ccc(F)cc2)CC1)n1cc(Br)cn1 (configuration not stated) | -8.98
86 | CCCc1cnc(C)nc1N1CCC(F)(F)CC1 | -9.65
87 | CC(C)NC(=O)C1Cc2nc(-c3ccsc3)sc2N1CC1CC1 (configuration not stated) | -6.43
88 | CN(Cc1ccc2c(c1)OCO2)Cc1nc2c(cnn2C)c(=O)[nH]1 | 1.92
89 | CC(C)C1CCCN1CC(=O)NCc1ccc(OCC(N)=O)cc1 (configuration not stated) | 2.47
90 | Cc1cc(F)ccc1S(=O)(=O)N1CCN(C)c2ccncc21 | 4.79
91 | CCOc1ccc(-n2nc(C)c(CC(C)=O)c2C)cc1C(N)=O | -2.04
92 | CNC(=O)c1ccc(C2CCCN(C(=O)c3c(C)noc3C)C2)nc1 (configuration not stated) | -7.86

Row | SMILES | cytotoxicity at 70.5 h [%]
93 | O=C(NCCNC(=O)C1Cc2cc(F)ccc2O1)C1CCCCC1 (configuration not stated) | -9.82
94 | CCCc1nc(CN2CCCC(c3noc(C4CC4)n3)C2)no1 (configuration not stated) | -4.77
95 | CC(=O)N1CCN(C(C)c2ccc(Br)cc2)CC1 (configuration not stated) | -0.505
96 | c1cnc(N2CCC(OCC3CCCCO3)CC2)nc1 (configuration not stated) | -2.08
97 | CCSc1cc(C(=O)NCCC(=O)Nc2ccccn2)ccn1 | -3.16
98 | CCCN1CCN(C(=O)c2ccn(COc3ccc(F)cc3)n2)CC1 | -3.36
99 | CC(C)(C)NC(=O)c1ccn(COc2ccccc2Cl)n1 | -5.39
100 | CC1CCCCN1C(=O)Cn1cc(I)cn1 (configuration not stated) | -1.82
101 | COc1cc(CC2CC(c3ccc4c(c3)OCO4)=NO2)cc2c1OCO2 (configuration not stated) | -9.64
102 | Cc1cc(C)c2[nH]c(C(=O)NCCN3CCOC3=O)c(C)c2c1 | 1.29
103 | Cc1ccccc1NC(=O)CNC(C)COc1ccccc1 (configuration not stated) | -9.44
104 | CN(CCCNC(=O)N1CCCC1c1ccsc1)c1ccccn1 (configuration not stated) | 16.8
105 | Cc1ccc(N2CCC3(CC2)CC(OCC(=O)N(C)C)CO3)nn1 (configuration not stated) | -8.76
106 | CN(C)CCCNC(=O)c1nc(Cc2c(Cl)cccc2Cl)no1 | 15.3
107 | Cc1ccc(C)c(C(=O)N2CCN(C(=O)Cc3ccccn3)CC2)c1 | -8.87
108 | Cc1cccc(C)c1NC(=O)c1cc(S(N)(=O)=O)c(C)o1 | 20.8
109 | c1ccc(-c2noc(CCNC3CCOC4(CCOCC4)C3)n2)nc1 (configuration not stated) | -8.03
110 | CN1CCCC[C@@H]2[C@H]1[C@@H](c1ccccc1)CCN2S(=O)(=O)N1CCCC1 | -1.85
111 | COCCN(Cc1ccc(C)cc1)Cc1c[nH]cn1 | -7.56
112 | CN(Cc1ccccc1)C1(C(=O)NC(CO)CO)Cc2ccccc2C1 | 1.88
